# According to patent US20230167073A1 (Teijin Pharma Limited, priority 2020, published 2023):
# Molecular target: T1, Human TRPC6 (Homo sapiens, UniProt Q9Y210)
# T1 construct: expressed in transfected cells
# T1 sequence (Q9Y210 1-931): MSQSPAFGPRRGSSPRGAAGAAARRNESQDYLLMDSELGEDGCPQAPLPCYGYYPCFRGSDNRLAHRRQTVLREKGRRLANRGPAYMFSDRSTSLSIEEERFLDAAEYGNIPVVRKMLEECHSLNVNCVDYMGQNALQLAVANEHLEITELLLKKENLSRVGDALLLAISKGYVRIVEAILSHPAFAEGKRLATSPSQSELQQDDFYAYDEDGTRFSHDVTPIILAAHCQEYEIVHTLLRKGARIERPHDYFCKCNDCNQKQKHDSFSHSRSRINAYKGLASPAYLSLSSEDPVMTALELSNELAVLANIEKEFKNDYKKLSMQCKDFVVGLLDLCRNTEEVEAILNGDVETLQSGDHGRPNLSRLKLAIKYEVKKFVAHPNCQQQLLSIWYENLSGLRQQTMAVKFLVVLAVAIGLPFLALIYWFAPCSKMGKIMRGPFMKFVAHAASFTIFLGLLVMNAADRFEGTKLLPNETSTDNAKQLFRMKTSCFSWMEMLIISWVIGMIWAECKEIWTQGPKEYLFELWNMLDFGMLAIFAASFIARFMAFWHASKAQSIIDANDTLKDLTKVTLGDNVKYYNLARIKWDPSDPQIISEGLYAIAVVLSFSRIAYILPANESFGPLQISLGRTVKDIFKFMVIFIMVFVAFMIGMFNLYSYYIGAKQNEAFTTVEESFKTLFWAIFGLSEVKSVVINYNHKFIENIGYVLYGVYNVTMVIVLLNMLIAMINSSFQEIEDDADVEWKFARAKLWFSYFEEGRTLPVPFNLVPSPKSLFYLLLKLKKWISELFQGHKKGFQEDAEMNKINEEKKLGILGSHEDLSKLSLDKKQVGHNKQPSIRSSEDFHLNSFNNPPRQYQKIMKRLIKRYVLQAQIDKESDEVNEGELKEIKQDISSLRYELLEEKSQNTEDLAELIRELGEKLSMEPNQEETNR
# Assay: Evaluation of TRPC6 channel inhibitory activity (1), FLIPR Calcium 5 Assay Kit, OAG stimulation (Compound Nos. 1-1293)
# Format: cell-based
# Conditions: not given
# In short: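 TRPC6 (human) stable cells, 24 h culture; Ca5 no-wash dye + probenecid 30 min; cpd 20 min; OAG 30 μM final; ΔF (pre-cpd min to post-OAG max); 0%/100% = no cpd / no cpd + no OAG; 4PL → pIC50, binned +/++/+++.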
row,SMILES,IC50 [nM]
1,"N#Cc1ccc(-c2ncc(CCN)cn2)c(Oc2nnc(N3C4CCC3CC4)s2)c1 [compound 767, 4-[5-(2-aminoethyl)pyrimidin-2-yl]-3-[[5-(7-azabicyclo[2.2.1]heptan-7-yl)-1,3,4-thiadiazol-2-yl]oxy]benzonitrile]",< 10

# Same assay, conditions: Human TRPC6 stably-expressing cells, OAG 30 μM, FLIPR Calcium 5 Assay Kit; read-out: Inhibitory activity (pIC50 class) (converted)
row,IC50 [nM],SMILES
1,< 10,"CCN(CC)c1cc(Oc2cc(C#N)ccc2-c2ccc(CCN)cn2)n(C)n1 [compound 754, 4-[5-(2-aminoethyl)pyridin-2-yl]-3-[5-(diethylamino)-2-methylpyrazol-3-yl]oxybenzonitrile]"
2,10 to 1000,"Cn1nc(N2CCCC2=O)cc1Oc1cc(C#N)ccc1-c1ccc(CCN)cn1 [compound 755, 4-[5-(2-aminoethyl)pyridin-2-yl]-3-[2-methyl-5-(2-oxopyrrolidin-1-yl)pyrazol-3-yl]oxybenzonitrile]"
3,> 1000,"Cn1nc(C2CC2)cc1Oc1cc(C#N)ccc1-c1cc(C(=O)N2CCC[C@H](N)C2)cn2ccnc12 [compound 756, 4-[6-[(3S)-3-aminopiperidine-1-carbonyl]imidazo[1,2-a]pyridin-8-yl]-3-(5-cyclopropyl-2-methylpyrazol-3-yl)oxybenzonitrile]"
4,> 1000,"Cn1nc(C2CC2)cc1Oc1cc(C#N)ccc1-c1cc(C(=O)N2CCC[C@@H](N)C2)cn2ccnc12 [compound 757, 4-[6-[(3R)-3-aminopiperidine-1-carbonyl]imidazo[1,2-a]pyridin-8-yl]-3-(5-cyclopropyl-2-methylpyrazol-3-yl)oxybenzonitrile]"
5,< 10,"CC(C)CN(C)c1cc(Oc2cc(C#N)ccc2-c2ncc(CCN)cn2)n(C)n1 [compound 758, 4-[5-(2-aminoethyl)pyrimidin-2-yl]-3-[2-methyl-5-[methyl(2-methylpropyl)amino]pyrazol-3-yl]oxybenzonitrile]"
6,< 10,"CCCN(CCC)c1cc(Oc2cc(C#N)ccc2-c2ncc(CCN)cn2)n(C)n1 [compound 759, 4-[5-(2-aminoethyl)pyrimidin-2-yl]-3-[5-(dipropylamino)-2-methylpyrazol-3-yl]oxybenzonitrile]"
7,< 10,"COCCN(C)c1cc(Oc2cc(C#N)ccc2-c2ncc(CCN)cn2)n(C)n1 [compound 760, 4-[5-(2-aminoethyl)pyrimidin-2-yl]-3-[5-[2-methoxyethyl(methyl)amino]-2-methylpyrazol-3-yl]oxybenzonitrile]"
8,> 1000,Cn1nc(-c2ccccn2)cc1Oc1cc(C#N)ccc1-c1nc(Cl)c2c(n1)CCNC2 [compound 761]
9,> 1000,"CN(C)c1nc(-c2ccc(C#N)cc2Oc2cc(-c3ccccn3)nn2C)nc2c1CNCC2 [compound 762, 4-[4-(dimethylamino)-5,6,7,8-tetrahydropyrido[4,3-d]pyrimidin-2-yl]-3-(2-methyl-5-pyridin-2-ylpyrazol-3-yl)oxybenzonitrile]"
10,> 1000,"Cn1nc(C2CC2)cc1Oc1cc(C#N)ccc1-c1nnc2n1CCNC2 [compound 763, 3-(5-cyclopropyl-2-methylpyrazol-3-yl)oxy-4(5,6,7,8-tetrahydro-[1,2,4]triazolo[4,3-a]pyrazin-3-yl)benzonitrile]"
11,10 to 1000,"CC(C)Nc1cc(Oc2cc(C#N)ccc2-c2ncc(CN)cn2)cnn1 [compound 764, 4-[5-(aminomethyl)pyrimidin-2-yl]-3-[6-(propan-2-ylamino)pyridazin-4-yl]oxybenzonitrile]"
12,< 10,"CC(C)CNc1cc(Oc2cc(C#N)ccc2-c2ncc(CN)cn2)cnn1 [compound 765, 4-[5-(aminomethyl)pyrimidin-2-yl]-3-[6-(2-methylpropylamino)pyridazin-4-yl]oxybenzonitrile]"
13,> 1000,"N#Cc1ccc(-c2ncc(CN)cn2)c(Oc2cnnc(NC3COC3)c2)c1 [compound 766, 4-[5-(aminomethyl)pyrimidin-2-yl]-3-[6-(oxetan-3-ylamino)pyridazin-4-yl]oxybenzonitrile]"
14,< 10,"CC(C)C(N)c1cnc(-c2ccc(C#N)cc2Oc2cc(-c3ccccn3)nn2C)nc1 (stereo not drawn) [compound 768, 4-[5-(1-amino-2-methylpropyl)pyrimidin-2-yl]-3-(2-methyl-5-pyridin-2-ylpyrazol-3-yl)oxybenzonitrile]"
15,< 10,"CN(CC1CC1)c1cc(Oc2cc(C#N)ccc2-c2ncc(CCN)cn2)n(C)n1 [compound 769, 4-[5-(2-aminoethyl)pyrimidin-2-yl]-3-[5-[cyclopropylmethyl(methyl)amino]-2-methylpyrazol-3-yl]oxybenzonitrile]"
16,< 10,"CCCN(C)c1cc(Oc2cc(C#N)ccc2-c2ncc(CCN)cn2)n(C)n1 [compound 770, 4-[5-(2-aminoethyl)pyrimidin-2-yl]-3-[2-methyl-5-[methyl(propyl)amino]pyrazol-3-yl]oxybenzonitrile]"
17,10 to 1000,"Cn1nc(N2CCOCC2)cc1Oc1cc(C#N)ccc1-c1ncc(CCN)cn1 [compound 771, 4-[5-(2-aminoethyl)pyrimidin-2-yl]-3-(2-methyl-5-morpholin-4-ylpyrazol-3-yl)oxybenzonitrile]"
18,< 10,"Cn1nc(N2CCOCC2)cc1Oc1cc(C#N)ccc1-c1ncc(CN)cn1 [compound 772, 4-[5-(aminomethyl)pyrimidin-2-yl]-3-(2-methyl-5-morpholin-4-ylpyrazol-3-yl)oxybenzonitrile]"
19,< 10,"Cn1nc(N2CCOCC2)cc1Oc1cc(C#N)ccc1-c1ccc(CN)cn1 [compound 773, 4-[5-(aminomethyl)pyridin-2-yl]-3-(2-methyl-5-morpholin-4-ylpyrazol-3-yl)oxybenzonitrile]"
20,< 10,"CCN(C)c1cc(Oc2cc(C#N)ccc2-c2ncc(CCN)cn2)n(C)n1 [compound 774, 4-[5-(2-aminoethyl)pyrimidin-2-yl]-3-[5-[ethyl(methyl)amino]-2-methylpyrazol-3-yl]oxybenzonitrile]"
21,< 10,"CC(C)N(C)c1cc(Oc2cc(C#N)ccc2-c2ncc(CCN)cn2)n(C)n1 [compound 775, 4-[5-(2-aminoethyl)pyrimidin-2-yl]-3-[2-methyl-5-[methyl(propan-2-yl)amino]pyrazol-3-yl]oxybenzonitrile]"
22,> 1000,"Cn1nc(C2CC2)cc1Oc1cc(C#N)ccc1-n1cc2c(n1)CCNC2 [compound 776, 3-(5-cyclopropyl-2-methylpyrazol-3-yl)oxy-4-(4,5,6,7-tetrahydropyrazolo[4,3-c]pyridin-2-yl)benzonitrile]"
23,> 1000,"Cn1nc(C2CC2)cc1Oc1cc(C#N)ccc1-n1ncc2c1CCNC2 [compound 777, 3-(5-cyclopropyl-2-methylpyrazol-3-yl)oxy-4-(4,5,6,7-tetrahydropyrazolo[4,3-c]pyridin-1-yl)benzonitrile]"
24,> 1000,"Cn1nc(C2CC2)cc1Oc1cc(C#N)ccc1-c1ccc(CN2CCNCC2=O)cn1 [compound 778, 3-(5-cyclopropyl-2-methylpyrazol-3-yl)oxy-4-[5-[(2-oxopiperazin-1-yl)methyl]pyridin-2-yl]benzonitrile]"
25,> 1000,"Cn1nc(C2CC2)cc1Oc1cc(C#N)ccc1-c1ccc(CN2CCNCC2)cn1 [compound 779, 3-(5-cyclopropyl-2-methylpyrazol-3-yl)oxy-4-[5-(piperazin-1-ylmethyl)pyridin-2-yl]benzonitrile]"

row,SMILES,IC50 [nM]
1,"N#Cc1ccc(-c2ncc(CN)cn2)c(Oc2ccc(N3C4CCC3CC4)nc2)c1 [compound 753, 4-[5-(aminomethyl)pyrimidin-2-yl]-3-[6-(7-azabicyclo[2.2.1]heptan-7-yl)pyridin-3-yl]oxybenzonitrile]",> 1000
